Test results taken from PubChem BioAssay (NCI).
Where “and” joins values, the source holds several entries; their conditions need not be identical. Identical values can stand only once.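 Results reflect a 48-hour exposure of cells in 96-well plates to compound at five concentrations. GI50 = concentration required for 50% inhibition of growth. TGI: total growth inhibition.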

Tests used:
Assay in all cases: NCI-60 cell line screen, 48 h
CAKI-1 renal = test system: CAKI-1 renal
HCT-15 colon = test system: HCT-15 colon
HOP-62 NSCLC = test system: HOP-62 NSCLC
HS 578T breast = test system: HS 578T breast
IGROV1 ovarian = test system: IGROV1 ovarian
K-562 leukemia = test system: K-562 leukemia
MDA-MB-231 breast = test system: MDA-MB-231 breast
MOLT-4 leukemia = test system: MOLT-4 leukemia
SK-MEL-2 melanoma = test system: SK-MEL-2 melanoma
SK-MEL-5 melanoma = test system: SK-MEL-5 melanoma

COc1ccc(/C=C\c2cc(OC)c(OC)c(OC)c2)cc1OCC(=O)O
TGI (CAKI-1 renal): > 100 µM
TGI (HCT-15 colon): 80.8 µM
TGI (HOP-62 NSCLC): > 100 µM
TGI (HS 578T breast): 9.25 µM
TGI (IGROV1 ovarian): > 100 µM
TGI (K-562 leukemia): > 100 µM
TGI (MDA-MB-231 breast): > 92.7 µM
TGI (MOLT-4 leukemia): > 100 µM
TGI (SK-MEL-2 melanoma): > 53.9 µM
TGI (SK-MEL-5 melanoma): 50.1 µM

O=[N+]([O-])c1ccccc1N=Nc1c(O)[nH]c2c(Cl)cc(Cl)cc12
TGI (CAKI-1 renal): > 91.8 µM
TGI (HCT-15 colon): > 100 µM
TGI (HOP-62 NSCLC): > 23.1 µM
TGI (HS 578T breast): 53 µM
TGI (IGROV1 ovarian): > 100 µM
TGI (K-562 leukemia): > 100 µM
TGI (MDA-MB-231 breast): > 69.3 µM
TGI (MOLT-4 leukemia): > 87.8 µM
TGI (SK-MEL-2 melanoma): > 74.3 µM
TGI (SK-MEL-5 melanoma): > 100 µM

COc1ccc2c(=O)oc3c(OC)cc(CCN(C)C)c4c(=O)oc1c2c34
GI50 (CAKI-1 renal): 17.3 µM and 8.46 µM
TGI (CAKI-1 renal): 31.6 µM and 15.4 µM
GI50 (HCT-15 colon): 16.6 µM and 5.11 µM
TGI (HCT-15 colon): 36.1 µM and 12.3 µM
TGI (HOP-62 NSCLC): 28.7 µM
TGI (HS 578T breast): 24 µM
GI50 (IGROV1 ovarian): 15.9 µM and 3.03 µM
TGI (IGROV1 ovarian): 29.6 µM and 11.5 µM
TGI (K-562 leukemia): 5.4 µM
TGI (MDA-MB-231 breast): 16.1 µM
TGI (MOLT-4 leukemia): 26.8 µM and 17.1 µM
TGI (SK-MEL-2 melanoma): 33.1 µM and 29 µM
TGI (SK-MEL-5 melanoma): 24.7 µM and 14.7 µM

CN(Cc1cnc2nc(N)nc(N)c2n1)c1ccc(C(=O)N[C@@H](CCS(=O)(=O)O)C(=O)O)cc1
TGI (CAKI-1 renal): > 100 µM
TGI (HCT-15 colon): > 100 µM
TGI (HOP-62 NSCLC): > 100 µM
TGI (HS 578T breast): > 100 µM
TGI (IGROV1 ovarian): > 100 µM
TGI (K-562 leukemia): > 100 µM
TGI (MDA-MB-231 breast): > 100 µM
TGI (MOLT-4 leukemia): > 100 µM
TGI (SK-MEL-2 melanoma): > 100 µM
TGI (SK-MEL-5 melanoma): > 100 µM

COC(=O)/C=C/c1cc(OC(C)=O)c2c(c1)C(C(=O)OC)C(c1ccc(OC(C)=O)c(OC(C)=O)c1)O2 (stereo not drawn)
GI50 (CAKI-1 renal): 0.278 µM
TGI (CAKI-1 renal): 94 µM
GI50 (HCT-15 colon): 0.0445 µM
TGI (HCT-15 colon): > 100 µM
GI50 (HOP-62 NSCLC): 0.438 µM
TGI (HOP-62 NSCLC): > 100 µM
GI50 (HS 578T breast): 0.0521 µM
TGI (HS 578T breast): 68.2 µM
GI50 (IGROV1 ovarian): 0.589 µM
TGI (IGROV1 ovarian): > 100 µM
GI50 (K-562 leukemia): 0.0405 µM
TGI (K-562 leukemia): > 100 µM
GI50 (MDA-MB-231 breast): 0.442 µM
TGI (MDA-MB-231 breast): > 21.3 µM
GI50 (MOLT-4 leukemia): 0.0582 µM
TGI (MOLT-4 leukemia): > 47.4 µM
GI50 (SK-MEL-2 melanoma): 3.69 µM
TGI (SK-MEL-2 melanoma): > 100 µM
GI50 (SK-MEL-5 melanoma): 0.0572 µM
TGI (SK-MEL-5 melanoma): 1.98 µM

CCOC(=O)Nc1c(C)nc2ccccn12
GI50 (CAKI-1 renal): > 100 µM
TGI (CAKI-1 renal): > 100 µM
GI50 (HCT-15 colon): > 100 µM
TGI (HCT-15 colon): > 100 µM
GI50 (HOP-62 NSCLC): > 100 µM
TGI (HOP-62 NSCLC): > 100 µM
GI50 (HS 578T breast): > 100 µM
TGI (HS 578T breast): > 100 µM
GI50 (IGROV1 ovarian): > 100 µM
TGI (IGROV1 ovarian): > 100 µM
GI50 (K-562 leukemia): > 100 µM
TGI (K-562 leukemia): > 100 µM
GI50 (MDA-MB-231 breast): > 100 µM
TGI (MDA-MB-231 breast): > 100 µM
GI50 (MOLT-4 leukemia): > 100 µM
TGI (MOLT-4 leukemia): > 100 µM
GI50 (SK-MEL-2 melanoma): > 100 µM
TGI (SK-MEL-2 melanoma): > 100 µM
GI50 (SK-MEL-5 melanoma): > 100 µM
TGI (SK-MEL-5 melanoma): > 100 µM

CCCCCCn1c(-c2ccc(C(=O)O/N=C(\N)c3ccc4c(c3)OCO4)cc2)nc(-c2ccccc2)c1-c1ccccc1
GI50 (CAKI-1 renal): 1.39 µM
TGI (CAKI-1 renal): 2.86 µM
GI50 (HCT-15 colon): 1.61 µM
TGI (HCT-15 colon): 3.34 µM
GI50 (HOP-62 NSCLC): 2.11 µM
TGI (HOP-62 NSCLC): 4.71 µM
GI50 (HS 578T breast): 1.64 µM
TGI (HS 578T breast): 3.95 µM
GI50 (IGROV1 ovarian): 0.463 µM
TGI (IGROV1 ovarian): 1.93 µM
GI50 (K-562 leukemia): 1.92 µM
TGI (K-562 leukemia): 5.06 µM
GI50 (MDA-MB-231 breast): 2.41 µM
TGI (MDA-MB-231 breast): 6.72 µM
GI50 (MOLT-4 leukemia): 1.74 µM
TGI (MOLT-4 leukemia): 4.55 µM
GI50 (SK-MEL-2 melanoma): 4.19 µM
TGI (SK-MEL-2 melanoma): 21.7 µM
GI50 (SK-MEL-5 melanoma): 2.22 µM
TGI (SK-MEL-5 melanoma): 4.93 µM

Cc1nc2c(Br)cc(Br)cc2c(=O)n1-c1nnc(-c2cccc(Cl)c2Cl)c(N)n1
GI50 (CAKI-1 renal): 28.5 µM
TGI (CAKI-1 renal): 80.6 µM
GI50 (HCT-15 colon): 15.4 µM
TGI (HCT-15 colon): 50.9 µM
GI50 (HOP-62 NSCLC): 7.08 µM
TGI (HOP-62 NSCLC): 28.2 µM
GI50 (HS 578T breast): 16 µM
TGI (HS 578T breast): 47.2 µM
GI50 (IGROV1 ovarian): 15 µM
TGI (IGROV1 ovarian): 55.1 µM
GI50 (K-562 leukemia): 3.4 µM
TGI (K-562 leukemia): 22.6 µM
GI50 (MDA-MB-231 breast): 13.9 µM
TGI (MDA-MB-231 breast): 49.5 µM
GI50 (MOLT-4 leukemia): 15.3 µM
TGI (MOLT-4 leukemia): 62.1 µM
GI50 (SK-MEL-2 melanoma): 27.4 µM
TGI (SK-MEL-2 melanoma): > 100 µM
GI50 (SK-MEL-5 melanoma): 17.2 µM
TGI (SK-MEL-5 melanoma): 39 µM

O=C(Nc1nc(-c2c[nH]c3ccccc23)cs1)c1n[nH]c(=O)c2ccccc12
GI50 (CAKI-1 renal): 2.44 µM
TGI (CAKI-1 renal): > 62.3 µM
GI50 (HCT-15 colon): 0.29 µM
TGI (HCT-15 colon): > 36.7 µM
GI50 (HOP-62 NSCLC): 3.72 µM
TGI (HOP-62 NSCLC): 26.6 µM
GI50 (HS 578T breast): 5.52 µM
TGI (HS 578T breast): 55 µM
GI50 (IGROV1 ovarian): 2.01 µM
TGI (IGROV1 ovarian): 34.7 µM
GI50 (K-562 leukemia): 1.27 µM
TGI (K-562 leukemia): > 100 µM
GI50 (MDA-MB-231 breast): 25.7 µM
TGI (MDA-MB-231 breast): > 100 µM
GI50 (MOLT-4 leukemia): 0.792 µM
TGI (MOLT-4 leukemia): > 35.4 µM
GI50 (SK-MEL-2 melanoma): 13.4 µM
TGI (SK-MEL-2 melanoma): > 100 µM
GI50 (SK-MEL-5 melanoma): 1.44 µM
TGI (SK-MEL-5 melanoma): > 100 µM
